Assay in all cases: In vitro antibacterial activity, agar dilution MIC
On the technique in general: In agar dilution the substance is mixed into plates at graded concentrations.

Experiment [1] concerns Streptococcus Pneumonia GYR 1171. It counts as cell-based. Particulars: code YY, BHI agar, 35-37° C., 20-24 hours. As to the method:
(§1) Each plate was inoculated with 1:100 (or 1:10 for slow-growing strains, such as Micrococcus and Streptococcus) dilutions of up to 32 different microorganisms, using a Steers replicator block. The inoculated plates were incubated at 35-37° C. for 20-24 hours. In addition, a control plate using BHI agar with no test compound was prepared and incubated at the beginning and end of each test. A plate containing erythromycin A was also prepared to provide test-to-test comparability. […] After incubation, each plate was visually inspected. The minimum inhibitory concentration (MIC) was defined as the lowest concentration of drug yielding no growth, a slight haze, or sparsely isolated colonies on the inoculum spot as compared to the growth control.

Experiment [2] deals with Streptococcus Pneumonia 5649. It counts as cell-based. Conditions: code ZA, BHI agar, 35-37° C., 20-24 hours, unit assumed. As to the method:
as §1

Experiment [3] has as its system Streptococcus agalactiae CMX 508. In kind it is cell-based. Particulars: code KK, BHI agar, 35-37° C., 20-24 hours, unit assumed. The method, then:
as §1

The test system of experiment [4] is Nocardia Asteroides ATCC 99700. In kind it is cell-based. Particulars: code VV, BHI agar, 35-37° C., 20-24 hours, unit assumed. As to the method: as §1
Experiment [5] concerns Streptococcus bovis A-5169. In kind it is cell-based. Conditions: code JJ, BHI agar, 35-37° C., 20-24 hours, unit assumed. As to the method: as §1
For experiment [6], the system named is Streptococcus pyogenes EES61. In kind it is cell-based. Conditions: code LL, BHI agar, 35-37° C., 20-24 hours, unit assumed. The method, then:
as §1

In experiment [7] the test system is Streptococcus pyogenes PIU 2548. In kind it is cell-based. Particulars: code NN, BHI agar, 35-37° C., 20-24 hours, unit assumed. The method, then:
as §1

The test system of experiment [8] is Staphylococcus aureus ATCC 6538P. In kind it is cell-based. Particulars: code AA, BHI agar, 35-37° C., 20-24 hours, unit assumed. As to the method:
as §1

Experiment [9] deals with Staphylococcus aureus A-5278. It counts as cell-based. Conditions: code CC, BHI agar, 35-37° C., 20-24 hours, unit assumed. As to the method:
as §1

For experiment [10], the system named is Staphylococcus epidermidis 3519. In kind it is cell-based. Conditions: code HH, BHI agar, 35-37° C., 20-24 hours, unit assumed. As to the method:
as §1

Experiment [11] has as its system Staphylococcus aureus A-5177. In kind it is cell-based. Particulars: code BB, BHI agar, 35-37° C., 20-24 hours, unit assumed. As to the method: as §1
In experiment [12] the test system is Staphylococcus aureus 1775. In kind it is cell-based. Conditions: code GG, BHI agar, 35-37° C., 20-24 hours, unit assumed. The method, then:
as §1

In the next experiment the test system is Candida albicans CCH 442. It counts as cell-based. Conditions: code TT, BHI agar, 35-37° C., 20-24 hours, unit assumed. The method, then: as §1
Experiment [13] concerns Staphylococcus aureus NCTC 10649M. In kind it is cell-based. Conditions: code EE, BHI agar, 35-37° C., 20-24 hours, unit assumed. As to the method:
as §1

Experiment [14] has as its system Streptococcus pyogenes 930. It counts as cell-based. Conditions: code MM, BHI agar, 35-37° C., 20-24 hours, unit assumed. As to the method:
as §1

Experiment [15] deals with Streptococcus Pneumonia ATCC 6303. In kind it is cell-based. Conditions: code XX, BHI agar, 35-37° C., 20-24 hours, unit assumed. The method, then:
as §1

For experiment [16], the system named is Mycobacterium smegmatis ATCC 114. It counts as cell-based. Conditions: code UU, BHI agar, 35-37° C., 20-24 hours, unit assumed. The method, then:
as §1

Experiment [17] has as its system Micrococcusluteus ATCC 4698. In kind it is cell-based, Micrococcus luteus. Conditions: code PP, BHI agar, 35-37° C., 20-24 hours, unit assumed. As to the method:
as §1

A further experiment has as its system Escherichiacoli SS. In kind it is cell-based, Escherichia coli. Conditions: code RR, BHI agar, 35-37° C., 20-24 hours, unit assumed. As to the method:
as §1

Another experiment concerns Escherichiacoli JUHL. In kind it is cell-based, Escherichia coli. Particulars: code QQ, BHI agar, 35-37° C., 20-24 hours, unit assumed. The method, then:
as §1

The test system of experiment [18] is Streptococcus Pneumonia 5979. In kind it is cell-based. Conditions: code ZZ, BHI agar, 35-37° C., 20-24 hours, unit assumed. As to the method:
as §1, with “test.” for “test. A plate containing erythromycin A was also prepared to provide test-to-test comparability.”

Experiment [19] has as its system Haemophilislnfluenzae DILL AMP R. In kind it is cell-based, Haemophilus influenzae. Particulars: code WW, BHI agar, 35-37° C., 20-24 hours, unit assumed. As to the method:
Representative compounds of the present invention were assayed in vitro for antibacterial activity as follows: twelve petri dishes containing successive aqueous dilutions of the test compound mixed with 10 mL of sterilized Brain Heart Infusion (BHI) agar (Difco 0418-01-5) were prepared. Each plate was inoculated with 1:100 (or 1:10 for slow-growing strains, such as Micrococcus and Streptococcus) dilutions of up to 32 different microorganisms, using a Steers replicator block. The inoculated plates were incubated at 35-37° C. for 20-24 hours. In addition, a control plate using BHI agar with no test compound was prepared and incubated at the beginning and end of each test.
A plate containing erythromycin A was also prepared to provide test-to-test comparability.
After incubation, each plate was visually inspected. The minimum inhibitory concentration (MIC) was defined as the lowest concentration of drug yielding no growth, a slight haze, or sparsely isolated colonies on the inoculum spot as compared to the growth control.

Regarding “Compound of Formula (I), R^p is Hydrogen, Y is Hydrogen, R^1 is —CH2CH(OH)CH(OH)—(3-quinolyl), R^3 is —CH2OH and R^4 is OH [Example 3]”, the “Antibacterial Activity (MIC's)” value in experiment [1] was “≦0.004”; in [2], 0.25 µg/mL; in experiment [3], 0.01 µg/mL; in experiment [4] it was 0.05 µg/mL; in experiment [5], 0.01 µg/mL; in experiment [6] it was 0.01 µg/mL. Further, the Antibacterial Activity (MIC's) in experiment [7] was 0.1 µg/mL; in [8], 0.05 µg/mL; in [9], over 100 µg/mL; in experiment [10] it was 0.05 µg/mL; in experiment [11] it was 0.05 µg/mL; in experiment [12] it was over 100 µg/mL. Also, the Antibacterial Activity (MIC's) was over 100 µg/mL in the experiment with Candida albicans CCH 442; 0.1 µg/mL in experiment [13]; 12.5 µg/mL in [14]; 0.008 µg/mL in experiment [15]; 3.1 µg/mL in [16]; 0.05 µg/mL in experiment [17]. Also, the Antibacterial Activity (MIC's) turned out to be 0.2 µg/mL in the experiment on Escherichiacoli SS, 50 µg/mL with Escherichiacoli JUHL, 64 µg/mL in experiment [18] and 2 µg/mL in experiment [19].

Values taken from patent US6569836B2, “6-O-alkyl-2-nor-2-substituted ketolide derivatives” (Abbott Laboratories, priority 1999, dated 2003).
